Experimental data from patent publication US5328913A, “Minoxidil analogs as inhibitors of cell proliferation and lysyl hydroxylase” (priority 1992, dated 1994).

Assays:
[1] = test system: lysyl hydroxylase; assay: Lysyl hydroxylase activity in extracts of treated human skin fibroblasts (Example 1, tritium-release assay); assay type: cell-based; conditions: for Lysyl hydroxylase activity (%): 1% ethanol
Protocol: (§1) Cultures of human skin fibroblasts grown to confluence were incubated for 72 h in medium supplemented with 1% ethanol containing various concentrations of minoxidil or deoxyminoxidil as indicated. Cells were then harvested, and the enzyme activities in extracts of these cells were measured by tritium-release assays (Murad and Pinnell, J. Biol. Chem. 262:11,973 (1987)). The results are expressed as percentages of zero-concentration values.
(§2) Cultures of human skin fibroblasts grown to confluence were incubated for 72 h in medium supplemented with 1% ethanol containing various concentrations of minoxidil or with 1% acetone containing various concentrations of minoxidil sulfate, as indicated. Cells were then harvested, and the enzyme activities in extracts of these cells were measured by tritium release assays (Murad and Pinnell, J. Biol. Chem. 262:11,973 (1987)). The results are expressed as percentages of zero-concentration values.
(§3) Skin fibroblast cultures derived from an apparently normal child (GM05659) were obtained from the Institute for Medical Research, Camden, N.J. The cells were subcultured by trypsinization and used before 25 population doublings. Typically, 4×10^5 cells were seeded onto 100-mm (diameter) plastic petri dishes and allowed to grow in 10 ml of Dulbecco's modified Eagle's minimum essential medium containing 5.6 mM glucose, buffered in pH 7.4 with 24 mM sodium biocarbonate/25 mM Hepes and supplemented with 20% (v/v) calf serum which had been inactivated for 30 min at 56° C. The cells were incubated at 37° C. in a humidified atmosphere of 5% CO2 plus 95% air.
(§4) After a week, the medium was replaced with medium supplemented with 0.5% heat-inactivated diaylzed calf serum, and the incubation was continued for 72 h in the presence of minoxidil or one of its structural analogs. The compounds were dissolved in 95% ethanol, except minoxidil sulfate which was dissolved in acetone; the final solvent concentration was 1% (v/v). During the last 3 h of incubation, cells received 100 μM Na L-ascorbate to ensure complete hydroxylation of the polypeptide precursors of precollagen (Murad et al, J. Invest. Dermatol. 75:404 (1980)).
The medium was then removed and the cells were washed twice with a solution containing 0.14 M NaCl, 5 mM KCl, 0.3 mM Na2 PO4, and 0.4 mM KH2 PO4, adjusted to pH 7.4. The cells were detached from the plates with a solution containing 0.05% trypsin, 0.54 mM EDTA, 5.5mM glucose, 6.90mM NaHCO3, […], and 5 mM KCl. The trypsinization was terminated with 2 vol of 20% serum-supplemented medium, and the cell number in an aliquot of the suspension was determined using a Coulter counter.
The detached cells were collected by centrifugation at 500g for 6 min at 4° C. washed twice by suspending in phosphate-buffered NaCl/KCl as above, and then centrifuged. The cell pellet was suspended in a medium (1 ml/5×10^6 cells) containing 0.2 M NaCl, 0.1 M glycine, 50 μM dithiothreitol, 20 mM Tris-HCl, buffer (pH 7.5), 0.1% Triton X-100, and 0.01% soybean trypsin inhibitor. The suspension was sonicated for 30 s using a Branson sonifier cell disrupter. The lysate was centrifuged at 27,000g for 1 h at 4° C., and the resulting supernatant was used for prolyl and lysyl hydroxylase assays (Murad and Pinnell, J. Biol. Chem. 262:11, 973 (1987)). The enzyme activities are based on a unit of soluble cell protein.
(§5) The protein content of cell extracts was determined by a dye-binding technique using Bio-Rad reagent and protein standard (Bradford, Anal. Biochem. 72:248 (1976)).
Note: Cultures of human skin fibroblasts grown to confluence were
incubated for 72 h in medium supplemented with 1% ethanol containing 1 mM
of the indicated compounds. Cells were then harvested, and the enzyme
activity in extracts of these cells was measured by a tritiumrelease
incubated for 72 h in medium supplemented with 1% ethanol containing 1 nM

[2] = test system: prolyl hydroxylase; assay: Prolyl hydroxylase activity in extracts of treated human skin fibroblasts (Example 1, tritium-release assay); assay type: cell-based; conditions: cultured fibroblasts, 72 h, Example 1
Protocol: as §1, §2, §3, §4
The medium was then removed and the cells were washed twice with a solution containing 0.14 M NaCl, 5 mM KCl, 0.3 mM Na2 PO4, and 0.4 mM KH2 PO4, adjusted to pH 7.4. […] The trypsinization was terminated with 2 vol of 20% serum-supplemented medium, and the cell number in an aliquot of the suspension was determined using a Coulter counter. […]
as §5

[3] = test system: lysyl hydroxylase; assay: Lysyl hydroxylase activity in fibroblasts treated with minoxidil and its hydroxy derivatives (Example 3); assay type: cell-based, human; conditions: for Fibroblast Lysyl Hydroxylase Activity: 48 hr
Protocol: Culture of human skin fibroblasts derived from an apparently normal adult were grown to confluent densities in Dulbecco's modified Eagle's medium supplemented with 10% (v/v) fetal calf serum. Thereafter, the medium was replaced with medium supplemented with 0.5% dialyzed fetal calf serum. […] In some experiments, minoxodil was dissolved in 95% (v/v) ethanol; the final concentration of minoxidil was 0.3 mM and that of ethanol was 0.3%. Cultures treated with ethanol only served as the control.
During the last 3 hr of treatment, cultures received 100 μM ascorbic acid. The enzyme activities in extracts of treated cells were measured by tritium-release assays described previously (Murad and Pinnell, J. Biol. Chem. 262:11,973 (1987)).

[4] = test system: Collagen Synthesis in Human Skin Fibroblasts; assay: Collagen synthesis in human skin fibroblasts; assay type: cell-based; conditions: 1 mM, 72 hr
Protocol: Culture of human skin fibroblasts derived from an apparently normal adult were grown to confluent densities in Dulbecco's modified Eagle's medium supplemented with 10% (v/v) fetal calf serum. Thereafter, the medium was replaced with medium supplemented with 0.5% dialyzed fetal calf serum. The cultures were treated for 72 hr with 1 mM minoxidil, 3'- hydroxyminoxidil,or 4'-hydroxyminoxidil (Upjohn) dissolved in aqueous medium. In some experiments, minoxodil was dissolved in 95% (v/v) ethanol; […]. Cultures treated with ethanol only served as the control.
During the last 6 hr of treatment, cultures were labeled with 20 μCi of L-[2,3-^3 H]proline in 1 ml of medium supplemented with 100 μM ascorbic acid. The amount of proline radioactivity incorporated into collagen in the medium and cells combined was measured after digestion with a bacterial collagenase, essentially as described previously (Freiberger et al, J. Invest. Dermatol. 75:425 (1980)).

[5] = test system: non-proliferating fibroblasts; assay: Cytotoxicity to non-proliferating fibroblasts (cell number per dish); assay type: cell-based; conditions: 5 mM, 72 hr
Source text: Certain aspects of the present invention are described in greater detail in the non-limiting Examples that follow. (See also Murad et al, Arch. Biochem. Biophys. 292:234 (1992)).

[6] = test system: lysyl hydroxylase; assay: Lysyl hydroxylase activity in extracts of treated human skin fibroblasts (Example 1, tritium-release assay); assay type: cell-based; conditions: 0.1 mM; dissolved in HCl; final concentration 0.0012 N; 72 h (Table II footnote a)
[7] = test system: lysyl hydroxylase; conditions: Murad and Pinnell 1987; cited from earlier work
[8] = test system: human skin fibroblasts; conditions: background; cited from earlier work
[9] = in vivo; cited from earlier work

Q: Which results are given for `Nc1cc(N2CCCCC2)nc(N)[n+]1[O-]` [Minoxidil]?
A: Lysyl hydroxylase activity (%) ([1]; 1 nM, 72 h, % of ethanol-treated controls (Table II)): 19-39%; Lysyl hydroxylase activity (%) ([1]; 1 mM, 72 h, % of solvent-treated controls (Table I)): 28%; decrease of the level of lysyl hydroxylase activity ([1]; 72 h, 1 mM (Table I text)): 72%; IC50 ([1]; cultured fibroblasts, 72 h (FIG. 2), read-out: concentration required for 50% inhibition (lysyl hydroxylase)): 118 µM; effect on prolyl hydroxylase activity (in words) [2]: no significant effect on prolyl hydroxylase activity; Fibroblast Lysyl Hydroxylase Activity ([3]; 1 mM): 378 cpm^3 H2 O/mg protein; Lysyl hydroxylase activity, % of control level ([3]; 1 mM, 72 hr): 25%; Lysyl Hydroxylase Activity ([3]; 1 mM, 72 hr (Table VI)): 308 cpm ^3 H2 O/mg protein; Lysyl Hydroxylase Activity ([3]; 1 mM, 72 hr (description table)): 308 cpm^3 H2 O/mg protein; lysyl hydroxylase suppressing activity at 5 mM (in words) ([3]; 5 mM): loses its effect; Fibroblast Lysyl Hydroxylase Activity ([3]; 5 mM): 1321 cpm^3 H2 O/mg protein; % Collagen Synthesized ([4]; mean ± SD of duplicate analysis of two cultures (Table VII)): 6.6 ± 0.7%; inhibition at 1000 µM ([4]; Homo sapiens, Skin fibroblast, compared with control, read-out: reduction of synthesis of collagen relative to that of total protein): 25%; 10^-6 × No. of Cells/Dish [5]: 0.49 10^-6 × No. of Cells/Dish; Lysyl hydroxylase activity (%) [6]: 45%; effect on lysyl hydroxylase in cultured fibroblasts (in words) [7]: selectively decreased the activity of lysyl hydroxylase; inhibition of serum-induced proliferation of fibroblasts in culture (in words) [8]: capable of inhibiting the serum-induced proliferation of fibroblasts in culture; antihypertensive / hypotensive activity (in words) [9]: hypotensive activity
